US20230277698A1, “SILICON-CONTAINING LIGAND COMPOUNDS” (Technische Universität München, priority 2020, published 2023)

Columns and labels:
[1] = target: human serum albumin (HSA) (Homo sapiens, UniProt P02768); experiment: HSA binding by radio inversed affinity chromatography (RIAC); type: in vitro ADME; conditions: 177Lu-labelled; Superdex 75 Increase 10/300 GL, 700 μM HSA in PBS, 0.8 mL/min
Procedure: A gel filtration column Superdex 75 Increase 10/300 GL (GE Healthcare, Uppsala, Sweden) was beforehand calibrated following the producer's recommendations with a commercially available gel filtration calibration kit (GE Healthcare, Buckinghamshire, UK) comprising conalbumin (MW: 75 kDa), ovalbumin (44 kDa), carbonic anhydrase (29 kDa), ribonuclease A (13.7 kDa) and aprotinin (6.5 kDa) as reference proteins of known molecular weight. RIAC experiments were conducted using a constant flow rate of 0.8 mL/min at rt. A solution of HSA in PBS at physiological concentration (700 μM) was used as the mobile phase. PSMA ligands were labelled as described with molar activities of 10-20 GBq/μmol. Probes of 1.0 MBq of the radioligand were injected directly from the labelling solution. HSA binding was expressed as an apparent molecular weight MW calculated from the retention time of the radioligand using the determined calibration curve.
The following table summarizes the underlying data. MW: molecular weight. tR: experimentally determined retention time. V: elution volume. Kav: partition coefficient.
RIAC, in an inversed way, comprises ligand samples (radiolabeled PSMA ligands) and a protein (HSA) containing mobile phase. Ligand-specific retention is caused by interaction of the ligand probe and HSA in the mobile phase. Unbound species, due to a molecular weight beneath the molecular cut off of the gel filtration column, are maximally retained while bound species are eluted in accordance to the higher molecular weight of the ligand-HSA-complex (MWHSA: 66.47 kDa). Experiments show a single radiopeak indicating a dynamic process of formation and dissociation of the ligand-HSA-complex throughout the passage through the column bed. Accordingly, the absolute retention time is the result of the ligand's mean time of abidance at HSA which is directly defined by the ligand's binding kinetics and affinity toward HSA. For evaluation, experimentally determined retention times tR are first converted into elution volumes Ve by multiplying with the flow rate and thereafter converted into partition coefficients Kav following the equation
where V0 is the column void volume (8.027 mL) and Vc is the geometric column volume (24 mL). Using the equation given by the trend line plot of the column calibration
the apparent molecular weight MW is calculated as
FIG. 7 and the table below show the results HSA-binding of lutetium-complexed PSMA-ligands and reference compounds determined by RIAC on a Superdex 75 Increase 10/300 GL column 700 μM HSA in PBS as solvent using a constant flow rate of 0.8 mL/min (plotted data, extracted from FIG. 8).
FIG. 8 illustrates the determination of HSA binding via radio inverse affinity chromatography (RIAC). Correlation of apparent molecular weight (MW) in Dalton (Da) and retention time of ^177Lu-labeled samples, determined on a Superdex 75 Increase 10/300 GL with 700 μM HSA in PBS as solvent using a constant flow rate of 0.8 mL/min.

[2] = target: T1, PSMA (Homo sapiens, UniProt Q04609); experiment: PSMA affinity (IC50), competition with ([125I]I-BA)KuE on LNCaP cells; conditions: natLu complexes; LNCaP cells 150000 cells/well, ([125I]I-BA)KuE c=0.2 nM, 1 h, 4 °C, HBSS+1% BSA; mean±SD, n=3; read-out: IC50 (binding affinity to PSMA)
T1 construct: PSMA-positive LNCAP cells (300265; Cell Lines Service, Eppelheim, Germany); host or cells: LNCaP cells
Procedure: PSMA-positive LNCAP cells (300265; Cell Lines Service, Eppelheim, Germany) were cultivated in Dulbecco modified Eagle medium/Nutrition Mixture F-12 with Glutamax (1:1) (DMEM-F12, Biochrom, Berlin, Germany) supplemented with fetal bovine serum (10%, FBS Zellkultur, Berlin, Germany) and kept at 37° C. in a humidified CO2 atmosphere (5%). A mixture of trypsin and EDTA (0.05%, 0.02%) in PBS (Biochrom) was used in order to harvest cells. Cells were counted with a Neubauer hemocytometer (Paul Marienfeld, Lauda-Königshofen, Germany).
In the case of metal-complexed ligands, the crude reaction mixture was diluted analogously, without further purification. Cells were harvested 24±2 hours prior to the experiment and seeded in 24-well plates (1.5×10^5 cells in 1 mL/well). After removal of the culture medium, the cells were carefully washed with 500 μL of HBSS, supplemented with 1% bovine serum albumin (BSA, Biowest, Nuaillé, France) and left 15 min on ice for equilibration in 200 μL HBSS (1% BSA). Next, 25 μL per well of solutions, containing either HBSS (1% BSA, control) or the respective ligand in increasing concentration ([…] in HBSS) were added with subsequent addition of 25 μL of [^125I]-BA-KuE (2.0 nM) in HBSS (1% BSA). After incubation on ice for 60 min, the experiment was terminated by removal of the medium and consecutive rinsing with 200 μL of HBSS (1% BSA). The media of both steps were combined in one fraction and represent the amount of free radioligand. Afterwards, the cells were lysed with 250 μL of 1 M aqueous NaOH for at least 10 min. After a washing step (250 μL of 1 M NaOH), both fractions, representing the amount of bound ligand, were united. Quantification of all collected fractions was accomplished in a γ-counter. PSMA-affinity determinations were carried out at least three times per ligand.
Affinities were determined using LNCaP cells (150000 cells/well) and ([^125I]I-BA)KuE (c=0.2 nM) as the radioligand (1 h, 4° C., HBSS+1% BSA). Data are expressed as mean±SD (n=3).

[3] = Octanol-water partition coefficient; type: physicochemical; conditions: 177Lu-labelled; n-octanol/PBS pH 7.4; n=6
Procedure: Approximately 1 MBq of the labelled tracer was dissolved in 1 mL of a 1:1 mixture (v/v) of PBS (pH 7.4) and n-octanol in a reaction vial (1.5 mL). After vigorous mixing of the suspension for 3 minutes at room temperature, the vial was centrifuged at 15000 g for 3 minutes (Biofuge 15, Heraeus Sepatech, Osterode, Germany) and 100 μL aliquots of both layers were measured in a gamma counter. The experiment was repeated at least six times.
FIG. 5 and the following table summarize log PO/W values of the synthesized radiolabeled ^177Lu-PSMA ligand compounds and ^177Lu-references (n=6).

T1 sequence (Q04609 whole entry): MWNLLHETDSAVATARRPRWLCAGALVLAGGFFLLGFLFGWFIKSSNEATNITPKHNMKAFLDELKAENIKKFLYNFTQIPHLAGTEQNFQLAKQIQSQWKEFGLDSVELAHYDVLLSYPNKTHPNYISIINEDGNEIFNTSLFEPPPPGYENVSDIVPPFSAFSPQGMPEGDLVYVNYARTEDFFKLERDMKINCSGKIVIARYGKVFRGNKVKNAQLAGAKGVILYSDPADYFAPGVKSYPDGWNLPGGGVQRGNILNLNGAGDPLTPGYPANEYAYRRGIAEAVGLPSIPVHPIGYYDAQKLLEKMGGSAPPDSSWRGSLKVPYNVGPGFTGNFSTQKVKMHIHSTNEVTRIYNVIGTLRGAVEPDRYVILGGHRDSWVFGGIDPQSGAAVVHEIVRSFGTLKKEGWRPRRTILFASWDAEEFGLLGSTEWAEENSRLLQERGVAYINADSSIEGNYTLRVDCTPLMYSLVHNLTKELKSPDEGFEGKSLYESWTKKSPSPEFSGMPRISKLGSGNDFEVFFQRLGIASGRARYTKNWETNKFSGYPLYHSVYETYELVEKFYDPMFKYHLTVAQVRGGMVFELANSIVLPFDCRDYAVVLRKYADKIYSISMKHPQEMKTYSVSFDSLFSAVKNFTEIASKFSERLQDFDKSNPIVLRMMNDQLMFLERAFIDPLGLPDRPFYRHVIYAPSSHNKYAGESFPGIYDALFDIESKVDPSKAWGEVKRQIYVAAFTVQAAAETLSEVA
Chain of human serum albumin (HSA) (P02768 25-609): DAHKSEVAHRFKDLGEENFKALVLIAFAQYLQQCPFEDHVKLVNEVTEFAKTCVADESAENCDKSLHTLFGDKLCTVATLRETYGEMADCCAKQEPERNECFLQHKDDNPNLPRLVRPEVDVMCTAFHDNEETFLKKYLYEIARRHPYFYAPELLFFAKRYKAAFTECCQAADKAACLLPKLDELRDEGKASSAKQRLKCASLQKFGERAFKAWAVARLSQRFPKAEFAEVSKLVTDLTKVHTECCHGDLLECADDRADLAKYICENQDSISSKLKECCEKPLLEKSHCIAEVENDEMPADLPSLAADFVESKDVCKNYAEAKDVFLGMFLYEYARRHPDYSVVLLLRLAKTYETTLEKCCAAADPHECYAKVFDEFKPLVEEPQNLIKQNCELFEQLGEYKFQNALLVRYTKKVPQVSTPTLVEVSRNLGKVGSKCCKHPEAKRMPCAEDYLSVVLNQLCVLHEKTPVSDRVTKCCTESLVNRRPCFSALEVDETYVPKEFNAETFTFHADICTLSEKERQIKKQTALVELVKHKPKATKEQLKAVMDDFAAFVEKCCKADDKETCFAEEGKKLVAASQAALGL

Row | SMILES | HSA-binding RIAC (apparent molecular weight) [1] [kDa] | IC50 [2] [nM] | Log PO/W [3]
1 | CC(C)(C)[Si](O)(c1ccc(C(=O)NC[C@@H](NC(=O)CCCCCNC(=O)CCCNC(=O)CC[C@@H](NC(=O)CCC(NC(=O)N[C@@H](CCC(=O)O)C(=O)O)C(=O)O)C(=O)O)C(=O)NCC(=O)N[C@@H](CCCCNC(=O)CC[C@@H](C(=O)O)N2CCN(CC(=O)O)CCN(CC(=O)O)CCN(CC(=O)O)CC2)C(=O)O)cc1)C(C)(C)C (stereo partly drawn) [E104-SiOH] | 7.8 | 9 ± 2.2 | −3.77 ± 0.16
2 | CC(C)(C)[Si](O)(c1ccc(C(=O)NC[C@@H](NC(=O)CC[C@@H](C(=O)O)N2CCN(CC(=O)O)CCN(CC(=O)O)CCN(CC(=O)O)CC2)C(=O)N[C@H](CCCCNC(=O)CCC(=O)NCCC[C@@H](NC(=O)CC[C@H](NC(=O)N[C@@H](CCC(=O)O)C(=O)O)C(=O)O)C(=O)O)C(=O)O)cc1)C(C)(C)C [7.3-SiOH] | 10.1 | 5.9 ± 1.4 | −3.9 ± 0.1
3 | CC(C)(C)[Si](F)(c1ccc(C(=O)NC[C@@H](NC(=O)CN2CCN(CC(=O)O)CCN(CC(=O)O)CCN(CC(=O)O)CC2)C(=O)N[C@H](CCCCNC(=O)CCC(=O)NCCC[C@@H](NC(=O)CC[C@H](NC(=O)N[C@@H](CCC(=O)O)C(=O)O)C(=O)O)C(=O)O)C(=O)O)cc1)C(C)(C)C [rhPSMA-10, reference compound] | 25.4 | 2.8 ± 0.7 | −3.6 ± 0.1
4 | O=C(O)CC[C@H](NC(=O)N[C@@H](CCCCNC(=O)[C@H](Cc1ccc2ccccc2c1)NC(=O)[C@H]1CC[C@H](CNC(=O)CN2CCN(CC(=O)O)CCN(CC(=O)O)CCN(CC(=O)O)CC2)CC1)C(=O)O)C(=O)O [PSMA-617, reference compound] | 13.7 | 3.8 ± 1.7 | −4.1 ± 0.1
5 | CC(C)(C)[Si](O)(c1ccc(C(=O)N[C@H](CCC(=O)NC[C@@H](NC(=O)CC[C@@H](C(=O)O)N2CCN(CC(=O)O)CCN(CC(=O)O)CCN(CC(=O)O)CC2)C(=O)NCCCCCC(=O)NCCC[C@@H](NC(=O)CC[C@H](NC(=O)N[C@@H](CCC(=O)O)C(=O)O)C(=O)O)C(=O)O)C(=O)O)cc1)C(C)(C)C [P105-SiOH] | 10.4 | 9.8 ± 0.4 | −3.94 ± 0.07
6 | CC(C)(C)[Si](O)(c1ccc(C(=O)NC[C@@H](NC(=O)CC[C@@H](C(=O)O)N2CCN(CC(=O)O)CCN(CC(=O)O)CCN(CC(=O)O)CC2)C(=O)NCC(=O)N[C@@H](CCCCNC(=O)CCC(=O)NCCC[C@@H](NC(=O)CC[C@H](NC(=O)N[C@@H](CCC(=O)O)C(=O)O)C(=O)O)C(=O)O)C(=O)O)cc1)C(C)(C)C [E102-SiOH] | 9.3 | 8.4 ± 2.4 | −4.14 ± 0.08
7 | CC(C)(C)[Si](O)(c1ccc(C(=O)NC[C@@H](NC(=O)CC[C@@H](C(=O)O)N2CCN(CC(=O)O)CCN(CC(=O)O)CCN(CC(=O)O)CC2)C(=O)N[C@H](CO)C(=O)NCCC(=O)NCCC(=O)NCCC[C@@H](NC(=O)CC[C@H](NC(=O)N[C@@H](CCC(=O)O)C(=O)O)C(=O)O)C(=O)O)cc1)C(C)(C)C [C007-SiOH] | 8.0 | 7.1 ± 0.9 | −4.28 ± 0.09
8 | CC(C)(C)[Si](O)(c1ccc(C[N+](C)(C)CC(=O)NCCC[C@@H](NC(=O)CC[C@@H](C(=O)O)N2CCN(CC(=O)O)CCN(CC(=O)O)CCN(CC(=O)O)CC2)C(=O)NCCCCCC(=O)NCCC[C@@H](NC(=O)CC[C@H](NC(=O)N[C@@H](CCC(=O)O)C(=O)O)C(=O)O)C(=O)O)cc1)C(C)(C)C [P110-SiOH] | 5.2 | 42.2 ± 6.2 | −4.11 ± 0.07
9 | CC(C)(C)[Si](F)(c1ccc(C(=O)NC[C@@H](NC(=O)CC[C@@H](C(=O)O)N2CCN(CC(=O)O)CCN(CC(=O)O)CCN(CC(=O)O)CC2)C(=O)N[C@H](CCCCNC(=O)CCC(=O)NCCC[C@@H](NC(=O)CC[C@H](NC(=O)N[C@@H](CCC(=O)O)C(=O)O)C(=O)O)C(=O)O)C(=O)O)cc1)C(C)(C)C [rhPSMA-7.3, reference compound] | 30.2 | 8 ± 1.6 | −3.8 ± 0.1
